Reference: patent publication EP1000039B1 (Wyeth Holdings Corporation, priority 1997, dated 1999)
Converted amounts (≈) assume the structure as drawn. Where two headings read alike, the source gives them in different places.

What was measured:
[1] = target: T1, His-tagged cytoplasmic domain of EGFR (Homo sapiens, UniProt P00533); assay: Inhibition of Epidermal Growth Factor Receptor Kinase (EGF-R) using recombinant enzyme, RR-SRC peptide phosphorylation; type: biochemical
T1 construct: containing the EGFR cDNA encoding amino acids 645 - 1186 preceded by Met-Ala-(His)6; Met-Ala-(His)6 (N); made in house; host or cells: Sf9 insect cells, recombinant baculovirus vHcEGFR52
T1 sequence (P00533 669-1210): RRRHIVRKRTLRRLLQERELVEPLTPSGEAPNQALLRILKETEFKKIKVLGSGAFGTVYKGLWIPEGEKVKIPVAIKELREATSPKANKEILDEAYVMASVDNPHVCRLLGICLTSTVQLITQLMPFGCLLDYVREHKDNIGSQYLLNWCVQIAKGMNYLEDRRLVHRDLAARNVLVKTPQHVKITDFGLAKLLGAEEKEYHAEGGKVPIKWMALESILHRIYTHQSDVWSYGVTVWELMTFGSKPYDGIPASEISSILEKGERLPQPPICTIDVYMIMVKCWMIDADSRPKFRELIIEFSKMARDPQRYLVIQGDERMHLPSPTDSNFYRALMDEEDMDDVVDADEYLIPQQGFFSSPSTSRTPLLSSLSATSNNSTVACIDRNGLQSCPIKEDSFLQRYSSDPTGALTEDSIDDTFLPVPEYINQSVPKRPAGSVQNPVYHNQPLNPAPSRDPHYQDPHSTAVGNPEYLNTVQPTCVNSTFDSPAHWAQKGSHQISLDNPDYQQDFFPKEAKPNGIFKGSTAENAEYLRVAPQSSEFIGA
Procedure: The enzyme used in this assay is the His-tagged cytoplasmic domain of EGFR. […] Sf9 cells in 100 mm plates were infected at an moi of 10 pfu/cell and cells were harvested 48 h post infection. A cytoplasmic extract was prepared using 1% Triton X-100 and applied to Ni-NTA column. After washing the column with 20 mM imidazole, HcEGFR was eluted with 250 mM imidazole (in 50 mM Na2HPO4, pH 8.0, 300 mM NaCl). Fractions collected were dialyzed against 10 mM HEPES, pH 7.0, 50 mM NaCl, 10% glycerol, 1ug/mL antipain and leupeptin and 0. 1 mM Pefabloc SC. The protein was frozen in dry ice/methanol and stored -70°C.
For the enzyme reaction, 10 uL of each inhibitor (at various concentrations) were added to each well of a 96-well plate. To this was added 3 uL of enzyme (1: 10 dilution in 10mM HEPES, pH 7.4 for final conc. of 1:120). This was allowed to sit for 10 min on ice and was followed by the addition of 5 ul peptide (80 uM final conc.), 10ul of 4X Buffer (Table A), 0.25 uL ^33P-ATP and 12 uL H2O. The reaction was allowed to run for 90 min at room temperature and was followed by spotting the entire volume on to precut P81 filter papers. The filter discs were washed 2X with 0.5% phosphoric acid and radioactivity was measured using a liquid scintillation counter.

[2] = test system: A431; assay: Inhibition of Cancer Cell Growth (Sulforhodamine B); type: cell-based, Human; conditions: for IC50: Homo sapiens, A-431, 48 hours exposure, read-out: Inhibition of Cancer Cell Growth as Measured by Cell Number (IC50) A431
Procedure: (§1) After 48 hours exposure to test compounds, cells were fixed with trichloroacetic acid, and stained with Sulforhodamine B. After washing with trichloroacetic acid, bound dye was solubilized in 10 mM Tris base and optical density was determined using plate reader. Under conditions of the assay the optical density is proportional to the number of cells in the well. […] The test procedure is described in details by Philip Skehan et. al. J.Natl. Canc. […]

[3] = test system: A2780S; assay: as above; type: cell-based, Human; conditions: 48 hours exposure; for IC50: Homo sapiens, read-out: Inhibition of Cancer Cell Growth as Measured by Cell Number (IC50) A2780S
Procedure: as §1

[4] = test system: SW620; assay: as above; type: cell-based, Human; conditions: for IC50: Homo sapiens, SW-620, 48 hours exposure, read-out: Inhibition of Cancer Cell Growth as Measured by Cell Number (IC50) SW620
Procedure: as §1

[5] = test system: LOX; assay: as above; type: cell-based, Human; conditions: 48 hours exposure; for IC50: Homo sapiens, read-out: Inhibition of Cancer Cell Growth as Measured by Cell Number (IC50) LOX
Procedure: as §1

[6] = test system: MCF7; assay: as above; type: cell-based, Human; conditions: 48 hours exposure; for IC50: Homo sapiens, read-out: Inhibition of Cancer Cell Growth as Measured by Cell Number (IC50) MCF7
Procedure: as §1

[7] = test system: A2780DDP; assay: as above; type: cell-based, Human; conditions: 48 hours exposure; for IC50: Homo sapiens, read-out: Inhibition of Cancer Cell Growth as Measured by Cell Number (IC50) A2780DDP
Procedure: as §1

[8] = test system: SKBR3; assay: as above; type: cell-based, Human; conditions: for IC50: Homo sapiens, SK-BR-3, 48 hours exposure, read-out: Inhibition of Cancer Cell Growth as Measured by Cell Number (IC50) SKBR3
Procedure: as §1

[9] = test system: MB435; assay: as above; type: cell-based, Human; conditions: 48 hours exposure; for IC50: Homo sapiens, read-out: Inhibition of Cancer Cell Growth as Measured by Cell Number (IC50) MB435
Procedure: as §1

[10] = recombinant enzyme, average of the number of tests, read-out: IC50

Compound	IC50 [1, 10] [pM]	IC50 [2] [µg/mL]	IC50 [3] [µg/mL]	IC50 [4] [µg/mL]	IC50 [5] [µg/mL]	IC50 [6] [µg/mL]	IC50 [7] [µg/mL]	IC50 [8] [µg/mL]	IC50 [9] [µg/mL]	IC50 [1] [pM]	Inhibition of Cancer Cell Growth as Measured by Cell Number (IC50) A431 ([2]; 48 hours exposure) [µg/mL]	Inhibition of Cancer Cell Growth as Measured by Cell Number (IC50) A2780S [3] [µg/mL]	Inhibition of Cancer Cell Growth as Measured by Cell Number (IC50) SW620 ([4]; 48 hours exposure) [µg/mL]	Inhibition of Cancer Cell Growth as Measured by Cell Number (IC50) LOX [5] [µg/mL]	Inhibition of Cancer Cell Growth as Measured by Cell Number (IC50) MCF7 [6] [µg/mL]	Inhibition of Cancer Cell Growth as Measured by Cell Number (IC50) A2780DDP [7] [µg/mL]	Inhibition of Cancer Cell Growth as Measured by Cell Number (IC50) MB435 [9] [µg/mL]	Inhibition of Cancer Cell Growth as Measured by Cell Number (IC50) SKBR3 ([8]; 48 hours exposure) [µg/mL]
O=C(/C=C/Cl)Nc1ccc2ncnc(Nc3cccc(Br)c3)c2c1 [Example 47, N-[4-[(3-Bromophenyl)amino]-6-quinazolinyl]-3(E)-chloro-2-propenamide]	300	0.023 (≈ 0.057 µM)	0.01 (≈ 0.0248 µM)	0.39 (≈ 0.966 µM)	0.0772 (≈ 0.191 µM)	1.17 (≈ 2.9 µM)	0.197 (≈ 0.488 µM)	0.496 (≈ 1.23 µM)										
O=c1c(Nc2ccc3ncnc(Nc4cccc(Br)c4)c3c2)c(N2CCOCC2)c1=O [Example 52, 3-[4-(3-Bromo-phenylamino)-quinazolin-6-ylamino]-4-morpholin-4-yl-cyclobut-3-ene-1,2-dione]		8.42 (≈ 17.5 µM)	27 (≈ 56.3 µM)	> 100	7.6 (≈ 15.8 µM)	53.1 (≈ 111 µM)	41.1 (≈ 85.7 µM)	38 (≈ 79.1 µM)	26.8 (≈ 55.8 µM)									
CN1CCC=C(C(=O)Nc2ccc3ncnc(Nc4cccc(Br)c4)c3c2)C1 [Example 53]		0.44 (≈ 1 µM)	2.89 (≈ 6.59 µM)		5.62 (≈ 12.8 µM)	5.09 (≈ 11.6 µM)	4.73 (≈ 10.8 µM)		4.31 (≈ 9.83 µM)	60000								
O=C(C=CCBr)Nc1ccc2ncnc(Nc3cccc(Br)c3)c2c1 [Example 65, 4-Bromo-but-2-enoic acid [4-(3-bromo-phenylamino)-quinazolin-6-yl]-amide]		3.2 (≈ 6.92 µM)	5.2 (≈ 11.3 µM)	8.1 (≈ 17.5 µM)	5.3 (≈ 11.5 µM)	42 (≈ 90.9 µM)	6.5 (≈ 14.1 µM)	0.3 (≈ 0.649 µM)	13 (≈ 28.1 µM)									
CN(C)CC=CC(=O)Nc1ccc2ncnc(Nc3cccc(Br)c3)c2c1 [Example 66, 4-Dimethylamino-but-2-enoic acid [4-(3-bromo-phenylamino)-quinazolin-6-yl]-amide]		0.007 (≈ 0.0164 µM)	3.9 (≈ 9.15 µM)	5.1 (≈ 12 µM)	4.9 (≈ 11.5 µM)	7.6 (≈ 17.8 µM)	5.1 (≈ 12 µM)	< 0.01	5.4 (≈ 12.7 µM)									
CSSC(C)C(=O)Nc1ccc2ncnc(Nc3cccc(Br)c3)c2c1 (centres unmarked) [Example 73, N-[4-(3-Bromo-phenylamino)-quinazolin-6-yl]-2-methyldisulfanyl-propionamide]		1.07 (≈ 2.38 µM)	1.77 (≈ 3.94 µM)	3.65 (≈ 8.12 µM)	3.1 (≈ 6.9 µM)	5.04 (≈ 11.2 µM)	3 (≈ 6.68 µM)											
O=C(Nc1ccc2ncnc(Nc3cccc(Br)c3)c2c1)C1CO1 (centres unmarked) [Example 81, Oxirane-2-carboxylic acid [4-(3-bromo-phenylamino)-quinazolin-6-yl]-amide]	700	0.34 (≈ 0.883 µM)	0.257 (≈ 0.667 µM)	0.584 (≈ 1.52 µM)	0.386 (≈ 1 µM)	1.03 (≈ 2.67 µM)	0.311 (≈ 0.807 µM)	0.306 (≈ 0.794 µM)										
C=CS(=O)(=O)Nc1ccc2ncnc(Nc3cccc(Br)c3)c2c1 [Example 82, Ethenesulfonic acid[4-(3-bromo-phenylamino)-quinazolin-6-yl]-amide]		0.025 (≈ 0.0617 µM)	0.0626 (≈ 0.154 µM)	0.53 (≈ 1.31 µM)	0.382 (≈ 0.943 µM)	0.81 (≈ 2 µM)	0.112 (≈ 0.276 µM)	0.269 (≈ 0.664 µM)										
N-[4-(3-Bromo-phenylamino)-quinazolin-6-yl]-2-morpholin-4-ylmethyl-acrylamide [Example 63]											0.6	0.8	5.5	3.9	17	4.0	4.5	<0.01
